Source: ChEMBL document CHEMBL1949655, “Neomycin-phenolic conjugates: polycationic amphiphiles with broad-spectrum antibacterial activity, low hemolytic activity and weak serum protein binding” (Bioorg Med Chem Lett, 2012)
≈ marks a conversion by molar mass, not a printed value.

How the values were obtained:
[1] = system: Staphylococcus aureus; test: microbe, parasite or virus in culture; format: functional; conditions: ATCC 29213, 24 h
Description: Antibacterial activity against Staphylococcus aureus ATCC 29213 after 24 hrs by macrobroth dilution method

[2] = system: Staphylococcus aureus; test: microbe, parasite or virus in culture; format: functional; conditions: ATCC 33592, 24 h
Description: Antibacterial activity against methicillin-resistant Staphylococcus aureus ATCC 33592 after 24 hrs by macrobroth dilution method

[3] = system: Staphylococcus epidermidis; test: microbe, parasite or virus in culture; format: functional; conditions: Staphylococcus epidermidis, 81388, 24 h
Description: Antibacterial activity against methicillin-susceptible Staphylococcus epidermidis 81388 after 24 hrs by macrobroth dilution method

[4] = system: Staphylococcus epidermidis; test: microbe, parasite or virus in culture; format: functional; conditions: isolate CAN-ICU61589, 24 h
Description: Antibacterial activity against methicillin-resistant Staphylococcus epidermidis isolate CAN-ICU 61589 after 24 hrs by macrobroth dilution method

[5] = system: Enterococcus faecalis; test: microbe, parasite or virus in culture; format: functional; conditions: ATCC 29212, 24 h
Description: Antibacterial activity against Enterococcus faecalis ATCC 29212 after 24 hrs by macrobroth dilution method

[6] = system: Enterococcus faecium; test: microbe, parasite or virus in culture; format: functional; conditions: ATCC 27270, 24 h
Description: Antibacterial activity against Enterococcus faecium ATCC 27270 after 24 hrs by macrobroth dilution method

[7] = system: Streptococcus pneumoniae; test: microbe, parasite or virus in culture; format: functional; conditions: ATCC 49619, 24 h
Description: Antibacterial activity against Streptococcus pneumoniae ATCC 49619 after 24 hrs by macrobroth dilution method

[8] = system: Escherichia coli; test: microbe, parasite or virus in culture; format: functional; conditions: ATCC 25922, 24 h
Description: Antibacterial activity against Escherichia coli ATCC 25922 after 24 hrs by macrobroth dilution method

[9] = system: Escherichia coli; test: microbe, parasite or virus in culture; format: functional; conditions: isolate CAN-ICU 61714, 24 h
Description: Antibacterial activity against Escherichia coli isolate CAN-ICU 61714 after 24 hrs by macrobroth dilution method

[10] = system: Escherichia coli; test: microbe, parasite or virus in culture; format: functional; conditions: isolate CAN-ICU 63074, 24 h
Description: Antibacterial activity against Escherichia coli isolate CAN-ICU 63074 after 24 hrs by macrobroth dilution method

[11] = system: Pseudomonas aeruginosa; test: microbe, parasite or virus in culture; format: functional; conditions: ATCC 27853, 24 h
Description: Antibacterial activity against Pseudomonas aeruginosa ATCC 27853 after 24 hrs by macrobroth dilution method

[12] = system: Pseudomonas aeruginosa; test: microbe, parasite or virus in culture; format: functional; conditions: isolate CAN-ICU 62308, 24 h
Description: Antibacterial activity against Pseudomonas aeruginosa isolate CAN-ICU 62308 after 24 hrs by macrobroth dilution method

[13] = system: Stenotrophomonas maltophilia; test: microbe, parasite or virus in culture; format: functional; conditions: isolate CAN-ICU 62584, 24 h
Description: Antibacterial activity against Stenotrophomonas maltophilia isolate CAN-ICU 62584 after 24 hrs by macrobroth dilution method

[14] = system: Acinetobacter baumannii; test: microbe, parasite or virus in culture; format: functional; conditions: isolate CAN-ICU 63169, 24 h
Description: Antibacterial activity against Acinetobacter baumannii 63169 isolate CAN-ICU after 24 hrs by macrobroth dilution method

[15] = system: Klebsiella pneumoniae; test: microbe, parasite or virus in culture; format: functional; conditions: ATCC 13883, 24 h
Description: Antibacterial activity against Klebsiella pneumoniae ATCC 13883 after 24 hrs by macrobroth dilution method

[16] = system: Staphylococcus aureus; test: microbe, parasite or virus in culture; format: functional; conditions: ATCC 29213, 24 h; remark: listed apart in the source
Description: Antibacterial activity against Staphylococcus aureus ATCC 29213 after 24 hrs by macrobroth dilution method in the presence of bovine serum albumin

[17] = system: Staphylococcus aureus; test: microbe, parasite or virus in culture; format: functional; conditions: ATCC 33592, 24 h; remark: listed apart in the source
Description: Antibacterial activity against methicillin-resistant Staphylococcus aureus ATCC 33592 after 24 hrs by macrobroth dilution method in the presence of bovine serum albumin

[18] = system: Staphylococcus epidermidis; test: microbe, parasite or virus in culture; format: functional; conditions: Staphylococcus epidermidis, 81388, 24 h; remark: listed apart in the source
Description: Antibacterial activity against methicillin-susceptible Staphylococcus epidermidis 81388 after 24 hrs by macrobroth dilution method in the presence of bovine serum albumin

[19] = system: Staphylococcus epidermidis; test: microbe, parasite or virus in culture; format: functional, isolate CAN-ICU 61589; conditions: isolate CAN-ICU61589, 24 h
Description: Antibacterial activity against methicillin-resistant Staphylococcus epidermidis isolate CAN-ICU 61589 after 24 hrs by macrobroth dilution method in the presence of bovine serum albumin

[20] = system: Enterococcus faecalis; test: microbe, parasite or virus in culture; format: functional; conditions: ATCC 29212, 24 h; remark: listed apart in the source
Description: Antibacterial activity against Enterococcus faecalis ATCC 29212 after 24 hrs by macrobroth dilution method in the presence of bovine serum albumin

[21] = system: Enterococcus faecium; test: microbe, parasite or virus in culture; format: functional; conditions: ATCC 27270, 24 h; remark: listed apart in the source
Description: Antibacterial activity against Enterococcus faecium ATCC 27270 after 24 hrs by macrobroth dilution method in the presence of bovine serum albumin

[22] = system: Streptococcus pneumoniae; test: microbe, parasite or virus in culture; format: functional; conditions: ATCC 49619, 24 h; remark: listed apart in the source
Description: Antibacterial activity against Streptococcus pneumoniae ATCC 49619 after 24 hrs by macrobroth dilution method in the presence of bovine serum albumin

[23] = system: Escherichia coli; test: microbe, parasite or virus in culture; format: functional; conditions: ATCC 25922, 24 h; remark: listed apart in the source
Description: Antibacterial activity against Escherichia coli ATCC 25922 after 24 hrs by macrobroth dilution method in the presence of bovine serum albumin

[24] = system: Escherichia coli; test: microbe, parasite or virus in culture; format: functional; conditions: isolate CAN-ICU 61714, 24 h; remark: listed apart in the source
Description: Antibacterial activity against Escherichia coli isolate CAN-ICU 61714 after 24 hrs by macrobroth dilution method in the presence of bovine serum albumin

[25] = system: Escherichia coli; test: microbe, parasite or virus in culture; format: functional; conditions: isolate CAN-ICU 63074, 24 h; remark: listed apart in the source
Description: Antibacterial activity against Escherichia coli isolate CAN-ICU 63074 after 24 hrs by macrobroth dilution method in the presence of bovine serum albumin

[26] = system: Pseudomonas aeruginosa; test: microbe, parasite or virus in culture; format: functional; conditions: ATCC 27853, 24 h; remark: listed apart in the source
Description: Antibacterial activity against Pseudomonas aeruginosa ATCC 27853 after 24 hrs by macrobroth dilution method in the presence of bovine serum albumin

[27] = system: Pseudomonas aeruginosa; test: microbe, parasite or virus in culture; format: functional; conditions: isolate CAN-ICU 62308, 24 h; remark: listed apart in the source
Description: Antibacterial activity against Pseudomonas aeruginosa isolate CAN-ICU 62308 after 24 hrs by macrobroth dilution method in the presence of bovine serum albumin

[28] = system: Stenotrophomonas maltophilia; test: microbe, parasite or virus in culture; format: functional; conditions: isolate CAN-ICU 62584, 24 h; remark: listed apart in the source
Description: Antibacterial activity against Stenotrophomonas maltophilia isolate CAN-ICU 62584 after 24 hrs by macrobroth dilution method in the presence of bovine serum albumin

[29] = system: Acinetobacter baumannii; test: microbe, parasite or virus in culture; format: functional; conditions: isolate CAN-ICU 63169, 24 h; remark: listed apart in the source
Description: Antibacterial activity against Acinetobacter baumannii isolate CAN-ICU 63169 after 24 hrs by macrobroth dilution method in the presence of bovine serum albumin

[30] = system: Klebsiella pneumoniae; test: microbe, parasite or virus in culture; format: functional; conditions: ATCC 13883, 24 h; remark: listed apart in the source
Description: Antibacterial activity against Klebsiella pneumoniae ATCC 13883 after 24 hrs by macrobroth dilution method in the presence of bovine serum albumin

[31] = Toxicity in human erythrocytes assessed as hemolysis at 100 ug/ml by spectrophotometry; conditions: at 100 µg/mL
[32] = system: Pseudomonas aeruginosa; test: Ratio of MIC90 of neomycin sulfate to MIC90 of compound against Pseudomonas aeruginosa ATCC 27853; format: functional
[33] = system: Pseudomonas aeruginosa; test: Ratio of MIC90 of neomycin sulfate to MIC90 of compound against Pseudomonas aeruginosa 62308; format: functional
[34] = Aqueous solubility of the compound; format: physicochemical; conditions: buffer

SMILES | MIC90 [1] [µg/mL] | MIC90 [2] [µg/mL] | MIC90 [3] [µg/mL] | MIC90 [4] [µg/mL] | MIC90 [5] [µg/mL] | MIC90 [6] [µg/mL] | MIC90 [7] [µg/mL] | MIC90 [8] [µg/mL] | MIC90 [9] [µg/mL] | MIC90 [10] [µg/mL] | MIC90 [11] [µg/mL] | MIC90 [12] [µg/mL] | MIC90 [13] [µg/mL] | MIC90 [14] [µg/mL] | MIC90 [15] [µg/mL] | MIC90 [16] [µg/mL] | MIC90 [17] [µg/mL] | MIC90 [18] [µg/mL] | MIC90 [19] [µg/mL] | MIC90 [20] [µg/mL] | other results
CC(C)(C)CC(C)(C)c1ccc(OCc2cn(C[C@H]3O[C@@H](O[C@@H]4[C@@H](O)[C@H](N)C[C@H](N)[C@H]4O[C@H]4O[C@H](CN)[C@@H](O)[C@H](O)[C@H]4N)[C@H](O)[C@@H]3O[C@H]3O[C@@H](CN)[C@@H](O)[C@H](O)[C@H]3N)nn2)c(Cc2ccc(Cl)cc2Cl)c1 | 8 (≈ 7.67 µM) | 8 (≈ 7.67 µM) | 4 (≈ 3.83 µM) | 1 (≈ 0.959 µM) | 8 (≈ 7.67 µM) | 8 (≈ 7.67 µM) | 64 (≈ 61.4 µM) | 16 (≈ 15.3 µM) | 64 (≈ 61.4 µM) | 64 (≈ 61.4 µM) | 128 (≈ 123 µM) | 64 (≈ 61.4 µM) | 512 (≈ 491 µM) | 64 (≈ 61.4 µM) | 64 (≈ 61.4 µM) | 8 (≈ 7.67 µM) | 16 (≈ 15.3 µM) | 2 (≈ 1.92 µM) | 4 (≈ 3.83 µM) | 16 (≈ 15.3 µM) | MIC90 [21]: 8 µg/mL (≈ 7.67 µM); MIC90 [22]: 128 µg/mL (≈ 123 µM); MIC90 [23]: 64 µg/mL (≈ 61.4 µM); MIC90 [24]: 128 µg/mL (≈ 123 µM); MIC90 [25]: 256 µg/mL (≈ 245 µM); MIC90 [26]: 512 µg/mL (≈ 491 µM); MIC90 [27]: 128 µg/mL (≈ 123 µM); MIC90 [28]: > 512 µg/mL; MIC90 [29]: 256 µg/mL (≈ 245 µM); MIC90 [30]: 64 µg/mL (≈ 61.4 µM); hemolysis at 100 ug/ml [31]: 27.5%; Ratio [32]: 4; Ratio [33]: 4
CC(C)(C)CC(C)(C)c1ccc(O)c(Cc2ccc(Cl)cc2Cl)c1 [CLOFOCTOL] |  |  |  |  |  |  |  |  |  |  |  |  |  |  |  |  |  |  |  |  | solubility [34]: Insoluble
NC[C@@H]1O[C@H](O[C@H]2[C@@H](O)[C@H](O[C@@H]3[C@@H](O)[C@H](N)C[C@H](N)[C@H]3O[C@H]3O[C@H](CN)[C@@H](O)[C@H](O)[C@H]3N)O[C@@H]2CO)[C@H](N)[C@@H](O)[C@@H]1O.O.O=S(=O)(O)O [NEOMYCIN TRISULFATE HYDRATE] | 1 | 256 | 0.5 | ≤ 0.25 | 16 | 4 | 32 | 4 | 1 | 8 | 512 | 256 | > 512 | 64 | 0.25 | 0.5 | 128 | 0.5 | ≤ 0.25 | 16 | MIC90 [21]: 4 µg/mL; MIC90 [22]: 8 µg/mL; MIC90 [23]: 0.25 µg/mL; MIC90 [24]: 1 µg/mL; MIC90 [25]: 16 µg/mL; MIC90 [26]: 256 µg/mL; MIC90 [27]: 256 µg/mL; MIC90 [28]: > 512 µg/mL; MIC90 [29]: 32 µg/mL; MIC90 [30]: ≤ 0.25 µg/mL; hemolysis at 100 ug/ml [31]: 0.69%
CC(C)(C)CC(C)(C)c1ccc(OCCCCc2cn(C[C@H]3O[C@@H](O[C@@H]4[C@@H](O)[C@H](N)C[C@H](N)[C@H]4O[C@H]4O[C@H](CN)[C@@H](O)[C@H](O)[C@H]4N)[C@H](O)[C@@H]3O[C@H]3O[C@@H](CN)[C@@H](O)[C@H](O)[C@H]3N)nn2)c(Cc2ccc(Cl)cc2Cl)c1 | 16 (≈ 14.7 µM) | 16 (≈ 14.7 µM) | 8 (≈ 7.37 µM) | 8 (≈ 7.37 µM) | 64 (≈ 59 µM) | 8 (≈ 7.37 µM) | 64 (≈ 59 µM) | 64 (≈ 59 µM) | 64 (≈ 59 µM) | 128 (≈ 118 µM) | 128 (≈ 118 µM) | 64 (≈ 59 µM) | 512 (≈ 472 µM) | 256 (≈ 236 µM) | 32 (≈ 29.5 µM) | 16 (≈ 14.7 µM) | 32 (≈ 29.5 µM) | 4 (≈ 3.69 µM) | 4 (≈ 3.69 µM) | 64 (≈ 59 µM) | MIC90 [21]: 16 µg/mL (≈ 14.7 µM); MIC90 [22]: 64 µg/mL (≈ 59 µM); MIC90 [23]: 64 µg/mL (≈ 59 µM); MIC90 [24]: 128 µg/mL (≈ 118 µM); MIC90 [25]: 256 µg/mL (≈ 236 µM); MIC90 [26]: 512 µg/mL (≈ 472 µM); MIC90 [27]: 256 µg/mL (≈ 236 µM); MIC90 [28]: > 512 µg/mL; MIC90 [29]: > 512 µg/mL; MIC90 [30]: 32 µg/mL (≈ 29.5 µM); hemolysis at 100 ug/ml [31]: 22.5%; Ratio [32]: 4; Ratio [33]: 4
